{"source": "patent US20150164754A1", "about": "“ANTI-AGEING COMPOSITION CONTAINING DEHYDROGENATED ABIETIC ACID AS ACTIVE INGREDIENT” (AMOREPACIFIC CORPORATION, priority 2012, published 2015)", "key": {"human normal fibroblasts [1]": {"test_system": "human normal fibroblasts", "experiment": "Effect on fibroblast proliferation (MTT)", "type": "cell-based", "details": "10 μM dehydrogenated abietic acid, 24 hours, relative to group not treated with sample", "description": "The effect of dehydrogenated abietic acid (purchased from Ramidus AB) of Formula 1 on wrinkle reduction was measured. In order to examine the effect of dehydrogenated abietic acid on skin cell proliferation that reduces wrinkles, human normal fibroblasts were seeded into a 96-well microplate at a density of 1×10^4 cells/well, and incubated in DMEM (Dulbecco's Modified Eagle's Medium) medium in a CO2 incubator at 36.5° C. for 24 hours. After incubation, in Example 1, the medium was replaced with a serum-free medium containing 10 μM of dehydrogenated abietic acid, and then the cells were further incubated for 24 hours. In Comparative Example 1, cells not treated with dehydrogenated abietic acid were used. Then, 10 μl of (3-(4,5-dimethyl-thiazol-2-yl)2,5-diphenyl tetrazolium (MTT, 5 mg/ml) was added to each well, which was then allowed to stand for 4 hours, followed by removal of the medium. Then, 100 μl of dimethyl sulfoxide solution was added to each well, and the absorbance at 570 nm was measured with a microplate reader. Based on the absorbance measured as described above, the cell proliferation effect was calculated using the following equation. The results of the calculation are shown in Table 1 below. Cell proliferation effect (%)=(absorbance of group treated with sample/absorbance of group not treated with sample)×100 Equation 1"}, "human normal fibroblasts [2]": {"test_system": "human normal fibroblasts", "experiment": "Effect on stimulation of collagen biosynthesis (PICP kit)", "type": "cell-based", "details": "10 μM dehydrogenated abietic acid, 48 hours, supernatant, 50 μg/ml ascorbic acid added", "description": "The effect of dehydrogenated abietic acid (purchased from Ramidus AB) of Formula 1 on the stimulation of collagen biosynthesis was measured. In order to examine the effect of dehydrogenated abietic acid on the stimulation of collagen biosynthesis, human normal fibroblasts were seeded into a 96-well microplate at a density of 1×10^4 cells/well, and incubated in DMEM (Dulbecco's Modified Eagle's Medium) medium in a CO2 incubator at 36.5° C. for 24 hours. After incubation, in Example 2, the medium was replaced with a serum-free medium containing 10 μM of dehydrogenated abietic acid, and then the cells were further incubated for 48 hours. In Comparative Example 2, cells not treated with dehydrogenated abietic acid were used. At 24 hours before completion of the incubation, 50 μg/ml of ascorbic acid was added to each well to stimulate collagen synthesis. After completion, each well was washed, and the medium was replaced with serum-free DMEM medium, after which the cells were further incubated for 24 hours. After incubation, the supernatant of each well was collected, and the amount of procollagen type-I C-peptide (PICP) in the supernatant was measured using a kit (Takara, Kyoto, Japan) to determine the amount of newly synthesized collagen. The amount of PICP that is the amount of collagen synthesized is expressed in units of ng/2×10^4 cells in Table 2 below."}}}
{"smiles": "CC(C)c1ccc2c(c1)CC[C@H]1[C@](C)(C(=O)O)CCC[C@]21C", "note": "[Example 1, dehydrogenated abietic acid]", "values": [{"measurement": "Cell proliferation effect (%)", "setting": "human normal fibroblasts [1]", "result": 60.0, "unit": "%"}, {"measurement": "Amount of collagen synthesized (procollagen type-I C-peptide, PICP)", "setting": "human normal fibroblasts [2]", "result": 220, "unit": "ng/2 × 10^4"}]}
